Data on four compounds can be found in patent EP2935231B1, “C-XYLOSIDE COMPOUNDS, COMPOSITIONS AND USE THEREOF TO DEPIGMENT THE SKIN” (L'OREAL, priority 2012, dated 2014).

For orientation: IC50 means the midpoint of a concentration-inhibition curve.

Where two headings read alike, the source gives them in different places.

In series [1] the test system is modèle de peau reconstruite complet comprenant un derme vivant. The experiment in a line: Pigmentation in complete reconstructed skin model with living dermis, pigmentation induced by forskolin. Format: cell-based. The text has this: L'activité du composé 1 a été évaluée sur le modèle de peau reconstruite complet décrit dans le brevet FR2928654 selon le procédé décrit dans le brevet FR2930644.
Le composé 1 a été ajouté au milieu de culture pendant une période de 16 jours à partir du 2eme jour de la phase d'émersion. La pigmentation a été induite par la Forskoline ajoutée pendant une période de 14 jours à partir du 4eme jour d'émersion (condition contrôle positif pigmenté).
Le composé 1 a montré une activité dépigmentante sur les paramètres suivants : • Luminance (clarté de la peau) plus la valeur de luminance est élevée plus l'échantillon de peau est clair : • augmentation significative de 6 points de la luminance pour le composé1 (Valeur de L contrôle positif = 63, valeur de L traitement par molécule 1 à 1 mM = 69) • Quantification de la mélanine par analyse d'images sur des coupes colorées au Fontana Masson (coloration argentique des grains de mélanine) : réduction de 60% de la quantité de mélanine par le composé 1 (contrôle positif = valeur arbitraire de 100%, composé 1 à 1 mM = 39,48%).

The subject of the next series is synthèse de la mélanine. The experiment in a line: Inhibition of melanin synthesis in keratinocyte/melanocyte coculture (ratio of thiouracil to leucine incorporation). The conditions noted are these: concentration at which 50 % of melanin synthesis is inhibited; thiouracil/leucine incorporation relative to 100 % of control. Format: cell-based.
For series [2], the system named is coculture de kératinocytes et de mélanocytes. Briefly: Cytotoxicity on keratinocyte/melanocyte coculture (leucine incorporation). The conditions noted are these: coculture of keratinocytes and melanocytes.
Description: (§1) Ce test est réalisé sur coculture de kératinocytes et de mélanocytes.
(§2) Pour le composé testé, il a été déterminé : • la cytotoxicité, en estimant l'incorporation de la leucine, • l'activité inhibitrice sur la synthèse de la mélanine, en estimant le rapport de l'incorporation de thiouracile à l'incorporation de leucine, rapporté à 100 % du témoin (le témoin correspond au test réalisé sans composé à testé). Les valeurs des IC50 (concentration pour laquelle 50 % de la synthèse de la mélanine est inhibée) ont été déterminées.
Series [3] has the same test system.
Description: as §1, §2

Description for synthèse de la mélanine: as §1, §2

As to `COc1cc(CCC(O)CC2OC[C@@H](O)[C@H](O)[C@H]2O)ccc1O` (stereo partly drawn) [Composé 1, (3R,4S,5R)-2-[2-hydroxy-4-(4-hydroxy-3-methoxyphenyl)butyl]tetrahydro-2H-pyran-3,4,5-triol], in series [1] (1 mM, 16 days in culture medium, forskolin-induced pigmentation, higher = lighter skin), the “valeur de L (luminance)” value was 69. Further, the “augmentation de la luminance” value in series [1] (1 mM, 16 days in culture medium, versus forskolin positive control (L = 63)) is listed as 6 points. Moreover, the “quantité de mélanine (contrôle positif = valeur arbitraire de 100%)” value in series [1] (1 mM, image analysis of Fontana Masson stained sections) is listed as 39,48%. The “réduction de la quantité de mélanine” value in series [1] (1 mM, image analysis of Fontana Masson stained sections, versus positive control) turned out to be 60%. The effet toxique result in series [1] (histology (morphology of reconstructed skin) and number of melanocytes (TRP1 labelling, DOPA reaction on epidermal sheet)) was “absence d'effet toxique”.
In the case of `OC[C@H]1O[C@@H](Oc2ccc(O)cc2)[C@H](O)[C@@H](O)[C@@H]1O` [Arbutine], the IC50 in the series with synthèse de la mélanine was greater than 500 µM. Besides, in series [2], the Cytotoxicité sur co-culture entry is “Non cytotoxique”.
Take `O=c1cc(CO)occ1O` [Acide kojique]: the half-maximal inhibitory concentration (IC50) in the series with synthèse de la mélanine was greater than 500 µM. In addition, in series [2], the Cytotoxicité sur co-culture was determined as 100 µM.
Take `Oc1ccc(CCC(O)CC2OC[C@@H](O)[C@H](O)[C@H]2O)c(O)c1` (stereo partly drawn) [Composé 11, (3R,4S,5R)-2-[2-hydroxy-4-(2,4-di-hydroxy-phenyl)butyl]tetrahydro-2H-pyran-3,4,5-triol]: the half-inhibitory concentration (IC50) in the series with synthèse de la mélanine came to 145 µM. Moreover, the Cytotoxicité sur co-culture entry in series [3] is “Non cytotoxique”.
